Columns and labels:
[1] = target: T1, full-length 6x-His-tagged human G3BP1 (Homo sapiens, UniProt Q13283); test: Peptide displacement assay (Pep-FRET); assay type: binding; conditions: for IC50: displacement of FAM-labeled peptide probe, 60 min, room temperature; for displacement of FAM-labeled FGDF peptide from G3BP1: result in words, Fig. 1 C
T1 construct: 10 nM full-length 6x-His-tagged human G3BP1; made in house; host or cells: E. coli BL21 (DE3)
Description: Peptide displacement assays were performed in 20 μl total volume at 25°C at pH 7.4 in buffer containing 20 mM Tris-HCl, pH 7.5, 100 mM NaCl, 0.01% bovine serum albumin, 1 mM DTT, and 0.005% Tween-20. 10 nM full-length 6x-His-tagged human G3BP1 was added to the reaction mix containing the test compound and 0.5 nM anti-His-Tb antibody (PerkinElmer). […] Assay plates were shaken for 30 s, then centrifuged for 30 s, and then incubated at room temperature for 60 min. Data were read on an EnVision Multilabel plate reader at 495/520 nm. HTRF ratios were calculated as described by PerkinElmer and IC50s were calculated using GraphPad Prism 9 software and the [Inhibitor] versus Response—Variable Slope (four parameter) fit equation.

[2] = tested on: stress granule formation in U2OS cells stably expressing G3BP1-GFP; test: Preincubation, arsenite-induced stress granule formation, live cell imaging in U2OS; assay type: cell-based; conditions: for reduction of total stress granule area / reduction of stress granule formation compared with inactive enantiomer: 20 min pretreatment; for reduction of total stress granule area / stress granule formation: 500 μM NaAsO2; for reduction of stress granule formation compared with inactive enantiomer: 250 μM NaAsO2; for stress granule formation: any tested dose (5, 20, 50 μM)
Description: For preincubation of compounds, U2OS or HeLa cells stably expressing G3BP1-GFP or CRISPR-modified cells expressing TDP-43-GFP/G3BP1-GFP were seeded into eight-well Lab-Tek chambered cover glass (Nunc). […] This solution was vortexed for 5 s, added to the cells at 250 μl per well, and left to incubate on the microscope for 20 min. Conditions were maintained at 37°C and 5% CO2 using a Bold Line Cage Incubator (Okolab) and an objective heater (Bioptechs). During this incubation time, 5 xy fields were stored per condition, with each field having ∼20–30 cells within it. After the 20-min incubation, 250 μl of 500 μM or 1 mM (2×) sodium arsenite (Sigma-Aldrich) diluted in the FluoroBrite media with an appropriate amount of G3I compound or DMSO was added to the sample. Imaging began immediately after, with images at each xy field being taken every 1 min. For heat shock experiments, U2OS G3BP1-GFP-expressing cells were seeded into a 35-mm glass bottom dish (MatTek). Prior to the experiment, 1.5 ml FluoroBrite DMEM media (Gibco) supplemented with 10% FBS and 4 mM L-glutamine was combined with 0.1% DMSO or 50 μM G3I compound. The sample was incubated on the environmentally controlled microscope for 20 min. During this incubation time, 10 xy fields were stored per condition. After the 20-min incubation, acquisition began with each xy position being imaged every 30 s. 2 min into the acquisition, the objective heater was ramped to 43°C and maintained this temperature until ramped back down to 37°C at 32 min into the acquisition. All imaging was acquired on a Yokogawa CSU W1 spinning disk attached to a Nikon Ti2 eclipse with a Photometrics Prime 95B camera using Nikon Elements software (v5.20.00 to v5.21.02). Imaging was performed through a Nikon Plan Apo 60× 1.40 NA oil objective with Immersol 518 F (refractive index 1.518; Zeiss), and Perfect Focus 2.0 (Nikon) was engaged for all captures.
Automated granule detection and measurement were performed using a combination of ilastik and CellProfiler software. Briefly, ND2 multipoint timelapse files were resaved as image sequences in Fiji with the Bio-Formats plugin so that individual frames of the movies could be treated as individual images for analysis. From there, pixel classification in ilastik was used to segment both stress granules and the total cellular area within the field using the G3BP1-GFP channel via machine learning. These segmentations, along with the original G3BP1-GFP image, were input into CellProfiler, where objects were defined using the masks from ilastik.

[3] = tested on: stress granule formation in U2OS cells; test: 24 h pretreatment followed by arsenite, immunofluorescence; assay type: cell-based; conditions: then 500 μM NaAsO2 for 30 min
[4] = tested on: VCP A232E-induced stress granules in U2OS cells with tdTomato-tagged endogenous G3BP1; test: Dissolution of stress granules induced by GFP-VCP A232E expression; assay type: cell-based; conditions: 50 μM for 30 min; automated puncta tracking for G3Ia, manual blinded cell tracking for G3Ib
Description: U2OS cells with knock-in of G3BP1-tdTomato ([Yang et al., 2020]) were seeded into 96-well plates (3904; Corning). Either GFP-VCP-A232E or GFP-FUS-R495X were transfected into cells using ViaFect transfection reagent (Promega) 24 h prior to the start of the experiment. For samples to be treated with compounds G3Ia or G3Ia′, Hoechst (1:5,000; Biotium) was added and incubated for 30 min prior to the start of the experiment, washed once with PBS, and the media was changed to 100 μl FluoroBrite DMEM media (Gibco) upon starting the experiment. Imaging of plates was performed on a Cytation C10 spinning disk confocal (BioTek) with a Hamamatsu Orca-Flash 4.0 camera using Gen5 software (version 3.11). Imaging was performed through an Olympus Plan Apo 40× 0.6 NA dry objective with an adjustable collar set to 0.5 μm thickness. Laser autofocus prior to imaging the tdTomato channel was utilized for each image. The temperature was maintained at 37°C on the instrument and the cells were supplied with 5% CO2. A 7 × 7 tilescan was taken at the center of each well, capturing the tdTomato and GFP channels (and Hoechst when present). After completing the tilescan, 100 μl FluoroBrite with 100 μM (2×) G3I compound (vortexed for 5 s) was added to each well and incubated for 20 min before starting another round of imaging in the same locations as the first round. Samples treated with G3Ib or G3Ib′ were analyzed manually, scoring each cell with spontaneous granules for the presence or absence of granules following treatment with the compound. For experiments in which G3I compounds were pretreated prior to transfection, 50 μM of indicated compound or vehicle control were added to U2OS cells 20 min prior to the addition of the transfection reagent. […]
Samples treated with G3Ia or G3Ia′ were analyzed using an automated pipeline. […]

[5] = tested on: G3BP1- and FUS R495X-positive puncta in U2OS cells with tdTomato-tagged endogenous G3BP1; test: Dissolution of puncta induced by FUS R495X expression; assay type: cell-based; conditions: for G3BP1 puncta eliminated / reduction in number of puncta positive for FUS R495X: FUS R495X-transfected cells, 50 μM for 30 min; for extraction of FUS R495X from granules: result in words
Description: U2OS cells with knock-in of G3BP1-tdTomato ([Yang et al., 2020]) were seeded into 96-well plates (3904; Corning). Either GFP-VCP-A232E or GFP-FUS-R495X were transfected into cells using ViaFect transfection reagent (Promega) 24 h prior to the start of the experiment. For samples to be treated with compounds G3Ia or G3Ia′, Hoechst (1:5,000; Biotium) was added and incubated for 30 min prior to the start of the experiment, washed once with PBS, and the media was changed to 100 μl FluoroBrite DMEM media (Gibco) upon starting the experiment. Imaging of plates was performed on a Cytation C10 spinning disk confocal (BioTek) with a Hamamatsu Orca-Flash 4.0 camera using Gen5 software (version 3.11). Imaging was performed through an Olympus Plan Apo 40× 0.6 NA dry objective with an adjustable collar set to 0.5 μm thickness. Laser autofocus prior to imaging the tdTomato channel was utilized for each image. The temperature was maintained at 37°C on the instrument and the cells were supplied with 5% CO2. A 7 × 7 tilescan was taken at the center of each well, capturing the tdTomato and GFP channels (and Hoechst when present). After completing the tilescan, 100 μl FluoroBrite with 100 μM (2×) G3I compound (vortexed for 5 s) was added to each well and incubated for 20 min before starting another round of imaging in the same locations as the first round. Samples treated with G3Ib or G3Ib′ were analyzed manually, scoring each cell with spontaneous granules for the presence or absence of granules following treatment with the compound. For experiments in which G3I compounds were pretreated prior to transfection, 50 μM of indicated compound or vehicle control were added to U2OS cells 20 min prior to the addition of the transfection reagent. After 24 h of transfection, the cells were washed with PBS, fixed in 4% formaldehyde, and incubated with Hoechst (1:5,000; Biotium) in PBS for 30 min prior to the start of the experiment, washed once with PBS, and at room temperature imaging on the Cytation C10 spinning disk confocal was performed as described above.
Samples treated with G3Ia or G3Ia′ were analyzed using an automated pipeline. Segmentation was performed in both ilastik and Cellpose 2.0. Nuclear segmentation using the Hoechst channel and granule segmentation in both GFP and tdTomato channels was performed via pixel classification in ilastik using small cropped portions of the tilescan as the training dataset for each. Individual cell segmentation was performed in Cellpose 2.0 by inputting a merged RGB of the Hoechst and G3BP1-tdTomato channels. The Cellpose output was then eroded by one pixel and set as a binary mask in Fiji. The original three raw channels, three output masks from ilastik, and the one mask generated from Cellpose were all inputted into CellProfiler to generate per-cell measurements for granules as defined by GFP or tdTomato.

T1 sequence (Q13283 whole entry): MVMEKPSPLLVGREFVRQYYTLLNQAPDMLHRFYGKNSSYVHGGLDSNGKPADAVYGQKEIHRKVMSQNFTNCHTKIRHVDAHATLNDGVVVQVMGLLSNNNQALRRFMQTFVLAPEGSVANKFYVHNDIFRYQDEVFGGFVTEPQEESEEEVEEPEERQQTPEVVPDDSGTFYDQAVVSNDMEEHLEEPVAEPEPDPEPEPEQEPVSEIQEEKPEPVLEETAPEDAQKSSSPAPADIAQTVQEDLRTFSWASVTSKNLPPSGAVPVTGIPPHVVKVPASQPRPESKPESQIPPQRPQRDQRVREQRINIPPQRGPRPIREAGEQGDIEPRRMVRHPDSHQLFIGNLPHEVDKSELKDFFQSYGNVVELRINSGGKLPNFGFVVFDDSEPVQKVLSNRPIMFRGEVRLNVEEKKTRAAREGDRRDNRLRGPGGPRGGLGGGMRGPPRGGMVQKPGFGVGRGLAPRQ

SMILES | IC50 [1] [nM] | displacement of FAM-labeled FGDF peptide from G3BP1 [1] | reduction of total stress granule area ([2]; 5 μM) [%] | reduction of total stress granule area ([2]; 20 μM) [%] | reduction of stress granule formation compared with inactive enantiomer ([2]; 50 μM) [%] | reduction of total stress granule area ([2]; 50 μM) [%] | stress granule formation after 24 h pretreatment ([3]; 5 μM) | stress granule formation after 24 h pretreatment ([3]; 20 μM) | stress granule formation after 24 h pretreatment ([3]; 50 μM) | dissolution of VCP A232E-induced stress granules [4] [%] | G3BP1 puncta eliminated [5] [%] | reduction in number of puncta positive for FUS R495X [5] [%] | extraction of FUS R495X from granules [5] | stress granule formation [2] | stress granule formation after 24 h pretreatment ([3]; indicated doses)
COCCC(NC(=O)C(C)NC(=O)C(NC(=O)C(NC(=O)C(F)CC(C)(C)C)C(C)(C)O)C(C)c1ccccc1)C(=O)N(C)Cc1ccccc1 (stereo not shown) [G3Ia] | 1500 | potently displaced | ~36 | ~59 | ~86 | ~80 | no substantial impairment | no substantial impairment | inhibited stress granule formation | 83 | 92 | 3 | unable to extract FUS R495X from granules | – | –
COCCC(NC(=O)C(C)NC(=O)C(NC(=O)C(NC(=O)C(F)CC(C)(C)C)C(C)(C)O)C(C)c1ccccc1)C(=O)N(C)Cc1ccccc1 (stereo not shown) [G3Ia′] | > 50000 | little effect | – | – | – | – | – | – | – | – | 6 | 4 | – | not significantly altered | no discernable effects
CC(NC(=O)C(NC(=O)C(NC(=O)CCC(C)(C)C)C(C)(C)O)C(C)c1ccccc1)C(=O)N1CCCC1c1ccccc1 (stereo not shown) [G3Ib] | 700 | potently displaced | ~50 | ~85 | ~94 | ~93 | – | nearly completely inhibited | nearly completely inhibited | 69 | – | – | unable to extract FUS R495X from granules | – | –
CC(NC(=O)C(NC(=O)C(NC(=O)CCC(C)(C)C)C(C)(C)O)C(C)c1ccccc1)C(=O)N1CCCC1c1ccccc1 (stereo not shown) [G3Ib′] | > 50000 | little effect | – | – | – | – | – | – | – | 6 | – | – | – | not significantly altered | no discernable effects
